According to patent US11479802B2, “Assays for screening activity of modulators of members of the hydroxy steroid (17-beta) dehydrogenase (HSD17B) family” (Regeneron Pharmaceuticals, Inc., priority 2017, dated 2022):

Legend:
human HSD17B13 = target: T1, human HSD17B13 (Homo sapiens, UniProt Q7Z5P4); test: Substrate screening of steroid and bioactive lipid libraries against purified recombinant HSD17B13 (NADH-linked luciferase assay); type: biochemical; conditions: for HSD17B13 Enzymatic Activity Relative Light Units: 500 μM NAD+, 100 ng enzyme, 3 hours at 23° C.; for HSD17B13 Enzymatic Activity Percent Estradiol Control: normalized to 50 μM estradiol after subtraction of 5% DMSO
T1 sequence (Q7Z5P4 20-300): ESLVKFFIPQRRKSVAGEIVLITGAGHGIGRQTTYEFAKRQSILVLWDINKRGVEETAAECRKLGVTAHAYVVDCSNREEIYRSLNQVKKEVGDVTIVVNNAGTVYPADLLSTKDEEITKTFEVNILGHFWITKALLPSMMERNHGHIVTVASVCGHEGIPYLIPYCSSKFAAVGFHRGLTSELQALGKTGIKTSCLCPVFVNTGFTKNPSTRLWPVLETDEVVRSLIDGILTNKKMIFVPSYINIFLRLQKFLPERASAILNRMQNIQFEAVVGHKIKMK
Outline: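 Substrates (bioactive lipids 5 μM, steroids 50 μM; 5% DMSO) tested with 500 μM NAD+ and 100 ng recombinant human HSD17B13 in 0.2 M Tris-HCl pH 7.5, 3 h, 23° C. Luminescent NADH detection followed 1 h later; RLU normalized to estradiol (50 μM, 100%) and DMSO (0%) controls.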

HSD17B11 = target: T2, HSD17B11 (Homo sapiens, UniProt Q8NBQ5); test: Steroid substrate panel against HSD17B family member B11; type: biochemical; conditions: substrate at 50 μM; estradiol set as 100%
T2 construct: made in house
T2 sequence (Q8NBQ5 20-300): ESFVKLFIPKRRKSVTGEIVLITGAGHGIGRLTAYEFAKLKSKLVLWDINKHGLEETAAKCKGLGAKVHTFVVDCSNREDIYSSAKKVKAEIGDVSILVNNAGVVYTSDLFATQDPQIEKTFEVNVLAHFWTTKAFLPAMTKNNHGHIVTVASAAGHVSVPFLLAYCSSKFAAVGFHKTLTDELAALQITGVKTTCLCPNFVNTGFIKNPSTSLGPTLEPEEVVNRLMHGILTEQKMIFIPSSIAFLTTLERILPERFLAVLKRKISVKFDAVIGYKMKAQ
Description: (§1) To understand the functional consequences of premature truncation of the HSD17B13 protein due to rs72613567:TA (the associated variant, rs72613567, is an insertion of an adenine adjacent to the donor splice site of exon six (TA allele)), the enzymatic activity of isoforms A and D was evaluated in vitro using recombinant protein and nicotinamide […] dinucleotide as cofactor. Reactions were performed in a final volume of 40 μl of assay buffer (0.2 M Tris-HCl, pH 7.5) which contained 500 μM NAD^+, 5 μM bioactive lipid or 50 μM steroid (all in a final concentration of 5% DMSO), and 100 ng of recombinant human HSD17B13. Reactions were incubated for 3 hours, at 23° C., after which an equal volume detection reagent was added. Following a 1 hour incubation at 23° C., the relative light units (RLUs) were measured on an Envision Plate Reader (Perkin Elmer). Raw RLU values were normalized as percent of control (50 μM estradiol) following subtraction of negative control (5% DMSO) using the following formula: Percent of control (POC)=100×(Sample (RLU)−Negative CTRLaverage)/(Positive CTRLaverage−Negative CTRLaverage).
(§2) In order to determine specificity of compounds with inhibitory activity against HSD17B13, assays for selected members of the HSD17B family which includes HSD17B1-HSD17B14 were established. As a first step, selected family members were expressed, purified and tested for activity a using a steroid substrate panel. Substrates from the steroid panel were tested at 50 μM, using the standard assay protocol. Activity against the substrates for each HSD17B family member were normalized to Percent of Control (POC). The control, estradiol, was set as 100%.

HSD17B5 = target: T3, HSD17B5 (Homo sapiens, UniProt P42330); test: Steroid substrate panel against HSD17B family member B5; type: biochemical; conditions: substrate at 50 μM; estradiol set as 100%
T3 construct: made in house
T3 sequence (P42330 1-323): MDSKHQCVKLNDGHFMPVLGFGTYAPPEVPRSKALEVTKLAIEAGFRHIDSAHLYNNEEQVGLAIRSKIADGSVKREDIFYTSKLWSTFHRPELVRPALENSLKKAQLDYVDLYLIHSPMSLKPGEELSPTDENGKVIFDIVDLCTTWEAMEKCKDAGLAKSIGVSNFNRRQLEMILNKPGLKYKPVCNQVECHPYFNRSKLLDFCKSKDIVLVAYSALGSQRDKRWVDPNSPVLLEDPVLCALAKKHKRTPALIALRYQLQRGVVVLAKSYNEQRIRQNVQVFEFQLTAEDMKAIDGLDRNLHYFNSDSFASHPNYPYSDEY
Description: as §1, §2

HSD17B2 = target: T4, HSD17B2 (Homo sapiens, UniProt P37059); test: Steroid substrate panel against HSD17B family member B2; type: biochemical; conditions: substrate at 50 μM; estradiol set as 100%
T4 construct: made in house
T4 sequence (P37059 1-387): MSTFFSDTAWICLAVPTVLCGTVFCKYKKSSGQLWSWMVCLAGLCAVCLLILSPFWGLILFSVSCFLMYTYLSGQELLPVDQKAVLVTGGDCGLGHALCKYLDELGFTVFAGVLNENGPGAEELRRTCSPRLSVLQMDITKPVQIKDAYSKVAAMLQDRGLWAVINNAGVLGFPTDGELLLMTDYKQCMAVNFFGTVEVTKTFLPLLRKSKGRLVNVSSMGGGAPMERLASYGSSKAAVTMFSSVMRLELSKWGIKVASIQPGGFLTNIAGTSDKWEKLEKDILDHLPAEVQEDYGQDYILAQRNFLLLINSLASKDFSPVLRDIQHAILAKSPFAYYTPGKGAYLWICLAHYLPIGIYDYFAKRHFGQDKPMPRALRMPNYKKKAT
Description: as §1, §2

HSD17B10 = target: T5, HSD17B10 (Homo sapiens, UniProt Q99714); test: Steroid substrate panel against HSD17B family member B10; type: biochemical; conditions: substrate at 50 μM; estradiol set as 100%
T5 construct: made in house
T5 sequence (Q99714 1-261): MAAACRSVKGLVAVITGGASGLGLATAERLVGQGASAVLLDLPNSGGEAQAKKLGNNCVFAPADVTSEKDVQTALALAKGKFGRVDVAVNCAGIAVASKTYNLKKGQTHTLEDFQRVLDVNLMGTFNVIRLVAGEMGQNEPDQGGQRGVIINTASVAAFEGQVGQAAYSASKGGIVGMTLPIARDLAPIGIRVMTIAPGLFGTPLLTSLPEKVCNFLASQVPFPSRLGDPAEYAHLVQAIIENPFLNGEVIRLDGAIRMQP
Description: as §1, §2

HSD17B1 = target: T6, HSD17B1 (Homo sapiens, UniProt P14061); test: Steroid substrate panel against HSD17B family member B1; type: biochemical; conditions: substrate at 50 μM; estradiol set as 100%
T6 construct: made in house
T6 sequence (P14061 1-328): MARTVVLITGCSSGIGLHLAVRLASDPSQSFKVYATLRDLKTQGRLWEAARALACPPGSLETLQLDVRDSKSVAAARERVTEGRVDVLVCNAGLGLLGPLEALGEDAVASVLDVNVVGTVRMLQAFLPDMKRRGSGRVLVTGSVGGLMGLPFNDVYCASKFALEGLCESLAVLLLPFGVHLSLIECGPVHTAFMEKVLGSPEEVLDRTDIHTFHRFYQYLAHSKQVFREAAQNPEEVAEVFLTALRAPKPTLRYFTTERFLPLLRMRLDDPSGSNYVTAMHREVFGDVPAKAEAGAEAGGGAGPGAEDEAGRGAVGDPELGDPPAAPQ
Description: as §1, §2

HSD17B4 = target: T7, HSD17B4 (Homo sapiens, UniProt P51659); test: Steroid substrate panel against HSD17B family member B4; type: biochemical; conditions: substrate at 50 μM; estradiol set as 100%
T7 construct: made in house
T7 sequence (P51659 1-736): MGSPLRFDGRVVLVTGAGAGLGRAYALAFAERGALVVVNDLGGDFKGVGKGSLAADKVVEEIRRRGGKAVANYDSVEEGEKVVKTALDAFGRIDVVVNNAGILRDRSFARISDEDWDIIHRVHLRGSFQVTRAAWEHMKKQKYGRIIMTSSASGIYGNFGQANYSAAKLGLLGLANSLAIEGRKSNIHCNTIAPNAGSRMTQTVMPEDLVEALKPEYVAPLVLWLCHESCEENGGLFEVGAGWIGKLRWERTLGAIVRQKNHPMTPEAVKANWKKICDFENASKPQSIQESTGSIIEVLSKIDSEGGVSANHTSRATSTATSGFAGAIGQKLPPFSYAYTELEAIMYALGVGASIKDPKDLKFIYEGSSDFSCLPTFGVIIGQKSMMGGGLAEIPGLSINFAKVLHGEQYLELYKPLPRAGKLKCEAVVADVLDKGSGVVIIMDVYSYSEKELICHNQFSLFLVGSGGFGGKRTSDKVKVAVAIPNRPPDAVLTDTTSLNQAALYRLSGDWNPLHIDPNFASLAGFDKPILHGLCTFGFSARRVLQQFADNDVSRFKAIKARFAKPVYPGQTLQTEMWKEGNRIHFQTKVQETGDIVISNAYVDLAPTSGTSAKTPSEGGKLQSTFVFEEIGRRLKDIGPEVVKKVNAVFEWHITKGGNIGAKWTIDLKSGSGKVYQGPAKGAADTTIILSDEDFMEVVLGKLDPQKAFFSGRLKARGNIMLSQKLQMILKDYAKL
Description: as §1, §2

[1] = target: T8, recombinant HSD17B13 (E20-K300) (Homo sapiens, UniProt Q7Z5P4); test: Biochemical NADH-linked screen of bioactive lipids as substrates (Example 2); conditions: 5 μM substrate, 100 μM NAD+, four hours at room temperature
T8 construct: recombinant HSD17B13 (E20-K300)
T8 sequence (Q7Z5P4 20-300): T1 sequence (Q7Z5P4 20-300)
Description: The biochemical assay described in Example 1 was repeated using bioactive lipids as substrates. In brief, 5 μM of each substrate was incubated in 40 μL reactions containing 1 μg of recombinant HSD17B13 (E20-K300) or beta-2 microglobulin (as a negative control) and 100 μM NAD^+ in 0.2M Tris-HCl, pH 7.5. After four hours of incubation at room temperature, 10 μL of each reaction was mixed with 10 μL luciferase and read, after 40 minutes, on an Envision Plate Reader (Perkin Elmer).

Compound	HSD17B13 Enzymatic Activity Relative Light Units (human HSD17B13; Steroid Library, 50 μM steroid) [RLU]	HSD17B13 Enzymatic Activity Percent Estradiol Control (human HSD17B13; Steroid Library, 50 μM steroid) [%]	Percent of Control (POC), B11 (HSD17B11) [%]	Percent of Control (POC), B5 (HSD17B5) [%]	Percent of Control (POC), B2 (HSD17B2) [%]	Percent of Control (POC), B10 (HSD17B10) [%]	Percent of Control (POC), B1 (HSD17B1) [%]	Percent of Control (POC), B4 (HSD17B4) [%]	HSD17B13 Enzymatic Activity Percent Estradiol Control (human HSD17B13; Bioactive Lipid Library, 5 μM bioactive lipid) [%]	HSD17B13 Enzymatic Activity Percent Estradiol Control (human HSD17B13; Steroid Library, 50 μM steroid, listed as Beta-estradiol) [%]	HSD17B13 Enzymatic Activity Percent Estradiol Control (human HSD17B13; Steroid Library, 50 μM steroid, listed as Estradiol Control) [%]	substrate for HSD17B13 [1]
C[C@]12CCC(=O)C[C@@H]1CC[C@@H]1[C@@H]2CC[C@]2(C)[C@@H](O)CC[C@@H]12 [DHT, dihydroxy testosterone (DHT)]	1886360	30.14	12.7	0	61.2	3.3	0.4	37.1				
C[C@]12CC[C@@H]3c4ccc(O)cc4CC[C@H]3[C@@H]1CC[C@@H]2O [Estradiol]		85.76	100	100	100	100	100	100	100.00	72.17	100.00	
CC1(C)[C@@H](O[C@H]2O[C@H](C(=O)O)[C@@H](O)[C@H](O)[C@H]2O[C@@H]2O[C@H](C(=O)O)[C@@H](O)[C@H](O)[C@H]2O)CC[C@]2(C)[C@H]3C(=O)C=C4[C@@H]5C[C@@](C)(C(=O)O)CC[C@]5(C)CC[C@@]4(C)[C@]3(C)CC[C@@H]12 [Glycyrrhizic acid]	163600	0.05	32.7	0	0.0	0.1	−0.1	0.7				
C[C@H](O)[C@@]1(O)CC[C@H]2[C@@H]3CC[C@@H]4C[C@H](O)CC[C@]4(C)[C@H]3CC[C@@]21C [Pregnanetriol]	163920	0.06	26.1	48	6.1	26.4	−0.1	0.4				
C[C@]12CC[C@H]3[C@@H](CCC4=CC(=O)CC[C@@]43C)[C@@H]1CC[C@@H]2O [Testosterone]	1125600	16.86	10.4	0	96.2	4.0	1.1	84.6				
C[C@]12CC[C@@H](O)C[C@H]1CC[C@@H]1[C@@H]2C(=O)C[C@@]2(C)[C@H]1CC[C@]2(O)C(=O)CO [TetrahydroCortisone]	232320	1.25	0.0	104	1.0	52.2	0.0	0.5				
CCCCCC[C@@H](O)C/C=C\CCCCCCCC(=O)O [ricinoleic acid]												identified as representative substrates
